In patent US20110172296A1, “MODULATION OF TRANSFORMING GROWTH FACTOR-BETA 1 EXPRESSION” (priority 2010, published 2011):
Several values for one entry are separate records, joined by “and”; a condition that tells them apart may be missing. Identical values can stand only once. In the oligonucleotide strings, read from the 5' end, every base follows the letter of its sugar. An asterisk marks phosphorothioate; unmarked linkages are phosphodiester. Other units and linkages are bracketed, terminal groups are in braces. A string of capitals states the bases alone. e = 2'-O-(2-methoxyethyl) (MOE); [5mC] = 5-methylcytosine; d = 2'-deoxy (DNA)

Tested on: human TGF-beta1 mRNA
Assay: Antisense inhibition of human TGF-beta1 mRNA in HuVEC cells, single 10 nM dose, Lipofectamine 2000 (Example 2)
Type: cell-based
Details: for % inhibition: 10 nM oligonucleotide, HuVEC, relative to untreated control cells; for inhibition of a TGF-beta1 mRNA: threshold lists of Oligo IDs, 10 nM
Procedure: Antisense oligonucleotides targeted to a TGF-beta1 nucleic acid were tested for their effects on TGF-beta1 mRNA in vitro. Cultured HuVEC cells at a density of 5,000 cells per well were transfected using Lipofectamine™ 2000 reagent with 10 nM antisense oligonucleotide for 4 hours. After a recovery period of approximately 24 hours, RNA was isolated from the cells and TGF-beta1 mRNA levels were measured by quantitative real-time PCR. TGF-beta1 mRNA levels were adjusted according to total RNA content, as measured by RIBOGREEN®. Results are presented as percent inhibition of TGF-beta1, relative to untreated control cells.
The chimeric antisense oligonucleotides in Tables 1 and 2 were designed as 2-13-5 MOE gapmers. Antisense molecules with this motif targeting TGF-beta1 are unique, and represent a novel chemical structure for an ASO directed against this target. The gapmers are 20 nucleotides in length, wherein the central gap segments are comprised of thirteen 2′-deoxynucleotides and are flanked on the 5′ side by wings comprising two nucleotides each and on the 3′ side by wings comprising five nucleotides each. Each nucleotide in the 5′ wing segment and each nucleotide in the 3′ wing segment has a 2′-MOE modification. The internucleoside linkages throughout each gapmer are phosphorothioate (P═S) linkages. All cytosine residues throughout each gapmer are 5-methylcytosines. “Target start site” indicates the 5′-most nucleotide to which the gapmer is targeted. “Target stop site” indicates the 3′-most nucleotide to which the gapmer is targeted. Each gapmer listed in Table 1 is targeted to SEQ ID NO: 1 (GENBANK Accession No. NM_000660.3). Each gapmer listed in Table 2 is targeted to SEQ ID NO: 2 (GENBANK Accession No. NT 011109.15 truncated from 14103000 to […]).

[1] = gapmers targeted to SEQ ID NO: 1
[2] = gapmers targeted to SEQ ID NO: 2

Row | Substance | % inhibition [1] [%] | % inhibition [2] [%] | inhibition of a TGF-beta1 mRNA
1 | 413990 (antisense eG*e[5mC]*dG*dG*d[5mC]*dA*dA*dA*dG*dG*dG*dA*dG*dG*d[5mC]*eG*eG*eT*e[5mC]*eT) [compound 413990] | 59 |  | 
2 | 414074 (antisense eA*eA*dG*dT*dG*dA*d[5mC]*d[5mC]*d[5mC]*d[5mC]*dA*dG*dG*dA*d[5mC]*eA*eA*eA*e[5mC]*eA) [compound 414074] |  | 24 | 
3 | 414101 (antisense eG*eA*d[5mC]*dA*dG*d[5mC]*dA*dA*dG*dA*d[5mC]*d[5mC]*dA*dA*d[5mC]*eA*e[5mC]*e[5mC]*eT*eT) [compound 414101] |  | 70 | 60% and 65% and 70%
4 | 414001 (antisense e[5mC]*eA*dG*dG*dT*d[5mC]*dG*dG*dA*dG*dA*dG*dA*dG*dA*eT*e[5mC]*e[5mC]*eG*eT) [compound 414001] | 78 |  | 60% and 65% and 70% and 75%
5 | 414106 (antisense eA*eT*dT*d[5mC]*d[5mC]*dT*dT*dG*dA*dT*dA*dT*d[5mC]*dT*dA*eG*eA*eG*eG*eA) [compound 414106] |  | 74 | 60% and 65% and 70%
6 | 414104 (antisense eA*eG*dG*dA*dT*dT*d[5mC]*dA*dA*dG*dT*dA*dA*dG*dG*eT*e[5mC]*eT*eA*e[5mC]) [compound 414104] |  | 61 | 60%
7 | 414113 (antisense eT*e[5mC]*dT*dG*dG*dG*dA*dA*dA*dA*dA*dG*dA*dG*dT*e[5mC]*e[5mC]*eT*eG*eG) [compound 414113] |  | 79 | 60% and 65% and 70% and 75%
8 | 414026 (antisense e[5mC]*e[5mC]*dT*d[5mC]*dA*dG*dG*d[5mC]*dT*d[5mC]*dG*dG*dG*d[5mC]*dT*e[5mC]*e[5mC]*eG*eG*eT) [compound 414026] | 82 |  | 60% and 65% and 70% and 75% and 80%
9 | 413968 (antisense eG*eA*dG*dA*dT*dG*dG*d[5mC]*d[5mC]*d[5mC]*dA*dG*dG*dG*d[5mC]*eG*e[5mC]*eG*eA*eA) [compound 413968] | 55 |  | 
10 | 413995 (antisense e[5mC]*e[5mC]*d[5mC]*dG*dA*dG*dG*dG*d[5mC]*dT*dG*dG*dT*d[5mC]*d[5mC]*eG*eG*eA*eA*eT) [compound 413995] | 72 |  | 60% and 65% and 70%
11 | 414120 (antisense e[5mC]*eA*d[5mC]*dA*d[5mC]*d[5mC]*d[5mC]*dT*dG*dG*dA*dA*d[5mC]*dA*dT*eA*e[5mC]*eA*eA*eA) [compound 414120] |  | 40 | 
12 | 414099 (antisense eG*eT*dA*dG*dG*d[5mC]*dT*dA*dT*dT*dA*dA*dT*dA*dG*eT*eT*eA*eA*eG) [compound 414099] |  | 37 | 
13 | 414071 (antisense eT*eA*dG*dA*dA*dG*dT*d[5mC]*dA*dT*dT*dT*d[5mC]*dT*dA*eA*eT*eG*eA*eT) [compound 414071] |  | 0 | 
14 | 414054 (antisense eT*eG*dA*dA*dG*dT*dT*d[5mC]*dA*dT*dT*d[5mC]*dT*dG*dG*eG*eT*eA*eG*eG) [compound 414054] |  | 51 | 
15 | 414053 (antisense eT*eT*dG*dG*d[5mC]*d[5mC]*d[5mC]*dG*dG*dA*dG*dG*dT*dT*dA*e[5mC]*eT*e[5mC]*eA*eG) [compound 414053] |  | 52 | 
16 | 414080 (antisense eT*eT*dG*dA*d[5mC]*d[5mC]*dA*dA*dG*dA*d[5mC]*dA*dG*dA*dT*eG*eA*eG*e[5mC]*eT) [compound 414080] |  | 54 | 
17 | 414097 (antisense eG*eA*dA*dT*d[5mC]*d[5mC]*dA*dA*d[5mC]*dA*dT*dT*dT*d[5mC]*dA*eG*e[5mC]*eT*eT*eT) [compound 414097] |  | 74 | 60% and 65% and 70%
18 | 413980 (antisense e[5mC]*e[5mC]*dG*dG*d[5mC]*dT*d[5mC]*d[5mC]*d[5mC]*dA*dG*d[5mC]*dG*dG*d[5mC]*eA*eA*e[5mC]*eG*eG) [compound 413980] | 74 |  | 60% and 65% and 70%
19 | 414000 (antisense eA*eA*dG*dG*dG*dT*d[5mC]*dT*dA*dG*dG*dA*dT*dG*d[5mC]*eG*e[5mC]*eG*eG*eG) [compound 414000] | 75 |  | 60% and 65% and 70% and 75%

Row | Substance | % inhibition [1] [%] | % inhibition [2] [%] | inhibition of a TGF-beta1 mRNA
20 | 414008 (antisense e[5mC]*eT*dG*dG*dT*dA*d[5mC]*d[5mC]*dA*dG*dA*dA*dG*dG*dT*eG*eG*eG*eT*eG) [compound 414008] | 89 |  | 60% and 65% and 70% and 75% and 80% and 85%
21 | 413976 (antisense e[5mC]*eA*dG*d[5mC]*dG*dG*d[5mC]*dA*dA*d[5mC]*dG*dG*dA*dA*dA*eA*eG*eT*e[5mC]*eT) [compound 413976] | 72 |  | 60% and 65% and 70%
22 | 414088 (antisense eT*eT*d[5mC]*dT*dA*dG*d[5mC]*dA*dT*dT*d[5mC]*dT*dA*dG*dA*eA*eT*e[5mC]*e[5mC]*e[5mC]) [compound 414088] |  | 66 | 60% and 65%
23 | 413969 (antisense e[5mC]*eG*dA*d[5mC]*dT*d[5mC]*d[5mC]*dT*dT*d[5mC]*d[5mC]*dT*d[5mC]*d[5mC]*dG*e[5mC]*eT*e[5mC]*e[5mC]*eG) [compound 413969] | 53 |  | 
24 | 413975 (antisense eG*e[5mC]*dG*dG*d[5mC]*dA*dA*d[5mC]*dG*dG*dA*dA*dA*dA*dG*eT*e[5mC]*eT*e[5mC]*eA) [compound 413975] | 73 |  | 60% and 65% and 70%
25 | 414013 (antisense eT*eG*dG*dG*d[5mC]*dG*d[5mC]*dG*dA*dT*d[5mC]*dT*dG*dG*dT*eA*e[5mC]*e[5mC]*eA*eG) [compound 414013] | 90 |  | 60% and 65% and 70% and 75% and 80% and 85% and 90%
26 | 414028 (antisense e[5mC]*e[5mC]*dA*dT*dT*dA*dG*d[5mC]*dA*d[5mC]*dG*d[5mC]*dG*dG*dG*eT*eG*eA*e[5mC]*e[5mC]) [compound 414028] | 75 |  | 60% and 65% and 70% and 75%
27 | 414007 (antisense eG*eG*dT*dA*d[5mC]*d[5mC]*dA*dG*dA*dA*dG*dG*dT*dG*dG*eG*eT*eG*eG*eT) [compound 414007] | 94 |  | 60% and 65% and 70% and 75% and 80% and 85% and 90%
28 | 414015 (antisense e[5mC]*e[5mC]*dT*dA*dG*dA*dT*dG*dG*dG*d[5mC]*dG*d[5mC]*dG*dA*eT*e[5mC]*eT*eG*eG) [compound 414015] | 83 |  | 60% and 65% and 70% and 75% and 80%
29 | 414059 (antisense e[5mC]*eA*dA*dG*dA*d[5mC]*dA*dG*dA*dG*dT*dG*dA*d[5mC]*dT*e[5mC]*eT*eA*eG*eA) [compound 414059] |  | 66 | 60% and 65%
30 | 414078 (antisense eT*eG*dG*dG*d[5mC]*dA*dA*dT*dT*dA*dT*dT*dG*dA*dA*eT*eA*eA*eA*eA) [compound 414078] |  | 18 | 
31 | 413985 (antisense e[5mC]*e[5mC]*d[5mC]*d[5mC]*dG*d[5mC]*dG*d[5mC]*d[5mC]*dT*d[5mC]*d[5mC]*dG*dG*d[5mC]*eT*e[5mC]*e[5mC]*e[5mC]*eA) [compound 413985] | 66 |  | 60% and 65%
32 | 414046 (antisense eG*eT*dG*dA*dA*dA*d[5mC]*dA*d[5mC]*d[5mC]*dG*dA*dG*dG*dA*e[5mC]*eA*e[5mC]*e[5mC]*eT) [compound 414046] |  | 67 | 60% and 65%
33 | 414096 (antisense e[5mC]*e[5mC]*dA*dA*d[5mC]*d[5mC]*dT*dT*dT*dG*dA*dG*dG*dA*dT*e[5mC]*eT*eT*eG*eG) [compound 414096] |  | 74 | 60% and 65% and 70%
34 | 414100 (antisense eT*eT*d[5mC]*d[5mC]*dA*d[5mC]*dT*d[5mC]*dA*dA*dT*dG*dA*dA*dT*eG*eG*eA*eA*eA) [compound 414100] |  | 48 | 
35 | 414070 (antisense eG*eA*d[5mC]*dT*dA*dA*dT*dG*dT*dT*d[5mC]*dT*dA*dT*dA*eA*eA*e[5mC]*e[5mC]*e[5mC]) [compound 414070] |  | 54 | 
36 | 414032 (antisense eG*eG*dG*dT*dT*dA*dT*dG*d[5mC]*dT*dG*dG*dT*dT*dG*eT*eA*e[5mC]*eA*eG) [compound 414032] | 80 |  | 60% and 65% and 70% and 75% and 80%
37 | 413967 (antisense eG*eA*dT*dG*dG*d[5mC]*d[5mC]*d[5mC]*dA*dG*dG*dG*d[5mC]*dG*d[5mC]*eG*eA*eA*eG*eG) [compound 413967] | 64 |  | 60%
